# Tests used:
# [1] = tested on: pressure-overloaded mouse heart; experiment: TAC heart failure model with preexisting dysfunction, BT2 from 2 weeks post-TAC for 6 weeks, echocardiography and survival; format: in vivo
# Description: In mice, transverse aortic constriction (TAC) was performed as described (Lee et al. (2011) Circulation Research 109:1332-1341) in anesthetized (pentobarbital 60 mg/kg, IP) and ventilated mice (age 12-14 weeks) to induce hypertrophy and heart failure. After left anterolateral thoracotomy with blunt dissection through the intercostal muscles, aortic constriction was induced by ligating the transverse aorta around a 27½-gauge blunt needle using 6-0 silk suture. The needle was subsequently removed. Sham-operated mice underwent a similar surgical procedure without constriction of the aorta. All mice were maintained in the same environment with regular lab chow and water ad libitum. At the end of the experiments, animals were euthanized and the hearts and lungs were removed and weighed. Hearts were dissected and tissues were either immediately immersed into 4% buffered formaldehyde or quickly frozen in liquid nitrogen for further experiments.
# BCKD = BCKD activity in tissues of high-fat-diet-induced obese (DIO) mice treated with BT2; format: in vivo, mouse; conditions: BT2 40 mg/kg/day 8 weeks oral gavage
# Description: (§1) Animals were euthanized using carbon dioxide asphyxiation followed by cervical dislocation and then dissected. Blood was harvested by cardiac puncture and centrifuged to isolate plasma which was stored at −80° C. Acidified citrate dextrose was used as an anticoagulant. Immediately after blood collection, heart, liver, kidneys, and both hind leg quadriceps muscles were removed and snap frozen in liquid nitrogen.
# Assays for the BCKD activity were carried out as prescribed previously (Tso et al. (2014), supra). Briefly, frozen tissues were thawed and homogenized in a homogenizing buffer (30 mM KPi, pH 7.5, 3 mM EDTA, 5 mM DTT, 1 mM KIC, 3% fetal bovine serum, 5% Triton X-100, and 1 μM leupeptin). Samples were spun at 25,000×g and supernatants were collected. Diluted samples were placed in 24-well assay plates with assay buffer (30 mMKPi, pH7.5, 0.4 mM CoA, 3 mM NAD, 5% fetal bovine serum, 2 mM thiamine diphosphate, 2 mM MgCl2, and 65 μg of human E3). Keto [1-^14C] isovalerate substrate was added and assay plates were incubated at 37° C. for 30 min. 20% TCA solution was added to stop the reactions. Assay plates were incubated further at 37° C. for 45 min. ^14CO2 trapped on 2 M NaOH soaked filter wicks was counted in a liquid scintillation counter.
# ob/ob mice = experiment: Glucose and insulin tolerance, plasma insulin, food intake, body weight in ob/ob mice treated with BT2; format: in vivo, mouse; conditions: BT2 40 mg/kg/day
# Description: as §1
# (§2) Mice were fasted for 6 hours. For insulin tolerance test, mice were injected (intraperitoneal) with insulin (0.75 U/kg body weight). For glucose tolerance test, mice were injected intraperitoneally with D-glucose (2 g/kg body weight). Experiments were performed between 14:00 and 16:00. Blood was drawn 0, 15, 30, 60, and 120 min after insulin or glucose administration. Blood glucose concentrations were measured through tail bleeding before and at the times indicated after injection. Blood glucose was measured using a portable glucometer (Johnson&Johnson). Plasma insulin and TNFα concentrations were measured by Milliplex Multiplex Immunoassay Kits MMHMAG-44K-14 (Merck Millipore, Darmstadt, Germany).
# BCKD subunit E1α = experiment: Western blot of phosphorylated E1α and BCKDK in heart post-TAC; format: in vivo, mouse
# Description: Proteins from heart tissue were harvested in buffer (50 mM HEPES [pH7.4], 150 mM NaCl, 1% NP-40, 1 mM EDTA, 1 mM EGTA, 1 mM glycerophosphate, 2.5 mM sodium pyrophosphate 1 mM Na3VO4, 20 mM NaF, 1 mM phenylmethylsulfonyl fluoride, 1 μg/mL of aprotinin, leupeptin, and pepstatin). Samples were separated on 4-12% Bis-Tris gels (Invitrogen), and transferred onto a nitrocellulose blot (Amersham). The blot was probed with the indicated primary antibodies. Protein signals were detected using HRP conjugated secondary antibodies and enhanced chemiluminescence (ECL) western blotting detection regents (Pierce). Rabbit polyclonal antisera against the E1α subunits of BCKD complex and phosphor-E1α antibodies were purchased from Abcam. PP2Cm antibody was generated in the lab.
# [2] = tested on: high fat diet (HFD)-induced obese (DIO) mice; experiment: Glucose and insulin tolerance, plasma insulin in DIO mice treated with BT2; format: in vivo, mouse; conditions: BT2 40 mg/kg/day 8 weeks
# Description: as §1, §2
# [3] = tested on: pressure-overloaded mouse heart; experiment: Metabolic gene expression (quantitative PCR) in pressure-overloaded mouse heart; format: in vivo
# Source text: Total RNA was extracted from heart tissues using Trizol Reagent (Invitrogen) according to the manufacturer's instructions. Total RNA was reverse-transcribed into the first-strand cDNA using ProtoScript® II Reverse Transcriptase (New England BioLabs). Then, cDNA transcripts were quantified by the CFX Real-Time PCR System (BioRad). 18sRNA were used for normalization except where indicated. PCR primer information is available upon request.
# [4] = Plasma BCAA/BCKA in DIO mice treated with BT2; format: in vivo, mouse; conditions: BT2 40 mg/kg/day 8 weeks
# Description: as §1
# (§3) The endogenous signal from blank plasma was subtracted from each point on the standard curve, and the data were plotted in GraphPad Prism. BCAA concentrations in treated samples were determined based on this standard curve.
# [5] = Plasma BCAA/BCKA in ob/ob mice treated with BT2; format: in vivo, mouse; conditions: BT2 40 mg/kg/day
# Description: as §1, §3
# [6] = after 5 weeks post-TAC (3 weeks post-treatment), speckle tracking
# [7] = by 2 weeks of BT2 treatment (4 weeks post-TAC)
smiles,measurement,setting,value
"O=C(O)c1sc2cc(Cl)ccc2c1Cl [BT2, 3,6-dichlorobenzo[b]thiophene-2-carboxylic acid]",longitudinal early diastolic strain rate (SRe),[1]; 5 weeks post-TAC,remarkably improved
same,"chamber size (ΔLVIDs, ΔLV Vols)",[1]; BT2 treated mouse hearts post-TAC,stable maintenance
same,myocardial strain,[1]; [6],significantly improved
same,myocardial strain rate,[1]; [6],significantly improved
same,increase of EF from baseline (week 2),[1]; [7],6.0±3.4 points
same,increase of FS from baseline (week 2),[1]; [7],3.5±1.9 points
same,systolic dysfunction,[1]; continuation of BT2 for additional 4 weeks,additional alleviations
same,beneficial effect on SRe at radial circumferential planes,[1]; during the treatment period,dispersity
same,mouse survival,[1]; from two weeks after treatment,improved
same,systolic velocity and displacement in longitudinal and radial planes,[1]; post-TAC,increase
same,systolic function,"[1]; pressure-overloaded mouse heart, six weeks treatment",preserved
same,pressure-overload-induced cardiac structural remodeling,[1]; six weeks treatment,alleviated
same,"BCKD activity in heart, muscle liver and kidney",BCKD,augments
same,glucose tolerance,ob/ob mice,significantly improved
same,hyperinsulinemia,ob/ob mice,attenuation
same,insulin sensitivity,ob/ob mice,significantly improved
same,cardiac BCAA catabolic activities post-TAC,"BCKD subunit E1α; intragastric, six weeks",enhanced
same,BCKDK mediated E1α phosphorylation,"BCKD subunit E1α; post-TAC heart, BT2 40 mg/kg/day 6 weeks vs vehicle",significantly reduced
same,BCKDK protein expression,"BCKD subunit E1α; post-TAC heart, BT2 vs vehicle",insignificant effect
same,glucose tolerance,[2],improved
same,hyperinsulinemia,[2],improved
same,insulin sensitivity,[2],improved
same,PDK4 mRNA level,[3]; BT2 treated mouse heart,trend of increase
same,gene expression related to glucose transport,[3]; BT2 treated mouse heart,unaffected
same,mRNA level of CD36,[3]; BT2 treated mouse heart post-TAC,moderately increased
same,"genes related to fatty acid β-oxidation (Acox1, Acadm)",[3]; BT2 treated mouse hearts,mild increase
same,mitochondrial DNA amount and PGC-1a mRNA levels,"[3]; vehicle vs BT2, post-sham or post-TAC",unaffected
same,plasma BCAA/BCKA levels,[4],lowers
same,magnitudes of reductions in plasma BCKA concentrations (vs BCAA),[5],far more pronounced
same,plasma BCAA levels,[5],significantly lowered

# From patent publication US20210278391A1, “COMPOSITIONS AND METHODS FOR TREATING CARDIOVASCULAR AND METABOLIC CONDITIONS” (The Regents of the University of California, priority 2017, published 2021)
